Tests used:
[1] = tested on: OCT-like uptake in L. salivarius biofilms; test: ASP+ fluorophore uptake (OCT-like) in L. salivarius biofilms; type: cell-based, Lactobacillus salivarius; conditions: for inhibition of ASP+ uptake: early and late biofilms
Protocol: (§1) At the start of the assay, 0.2 ml of stationary phase overnight bacterial growth was inoculated into 9.8 ml of pre-warmed MRS, thoroughly mixed, and 0.2 ml aliquots added to individual wells of Corning flat clear-bottomed 96 well microplates (product #3904, Corning, Inc., Corning, NY, USA). Plates were then placed into a 37° C. humidified incubator. Following static incubation for either 6 or 24 hours, plates were removed from the incubator and the well supernatants were gently removed leaving the bacterial biofilm intact on the bottom surface of the individual clear plate wells. Subsequently, the PMAT-specific fluorophore IDT307 (Molecular Devices) or the OCT-specific fluorophore ASP^+ (Sigma-Aldrich) dissolved in IMDM and pre-warmed to 37° C. was gently added to appropriate wells (added along the well side so as not to disturb the biofilm). The plate was immediately placed into a BioTek Synergy H1 reader (Winooski, VT, USA) and measured using Gen5 software at the time intervals shown in the FIGS. 4-7. All assays were done at 37° C. unless otherwise noted and reads were performed as bottom fluorescence in relative fluorescence units (RFU). For IDT307, the chemical and masking dye were supplied pre-measured and the amount of IMDM used as a diluent was the same as indicated for the use of HBSS. […] Drug Metab Dispos. 2015; 43(11):1773-80, herein incorporated by reference, with the minor modification that the fluorophore/masking dye combination were prepared as follows: 100 μl of a 2 mg ASP^+ stock solution per ml of distilled water was first added to 9.9 ml of IMDM and mixed, followed by the addition of 10 μl of a 10 mM Trypan blue solution. The excitation/emission wavelengths used for IDT307 and ASP^+, respectively, were 440 nm/520 nm and 475 nm/609 nm.
(§2) Plates were prepared as above in Example 4 and following 6 hours (FIGS. 8A and B for PMAT and OCT respectively) or 24 hours (FIGS. 8C and D for PMAT and OCT respectively) of incubation the media was gently removed and replaced with 100 μl of pre-warmed IMDM media with or without different concentrations of fluoxetine. The concentrations of fluoxetine were 0.3125 mM, 0.625 mM, 1.25 mM, or 2.5 mM. The plate was then incubated at 37° C. for 30 minutes. Following incubation, 100 μl of pre-warmed fluorophore was added to the appropriate wells. The plate was then immediate placed into the fluorescence reader and measured at 37° C.
(§3) Two other antidepressant drugs that are chemically unrelated to fluoxetine, duloxetine and amitriptyline, were tested for their action on PMAT- and OCT-like functionalities in Lactobacilli to determine if they may also be used as inhibitors. Cells were grown in 96-well plates for 24 hours to allow for biofilm formation as above. […] IDT307 or ASP^+ was then used to measure the effects of each antidepressant drug on the cells ability to take up the fluorophore.

[2] = tested on: OCT-like uptake in L. reuteri; test: ASP+ fluorophore uptake (OCT-like) in L. reuteri; type: cell-based, Lactobacillus reuteri; conditions: for attenuation of ASP+ fluorophore uptake: 2 mg/ml, 24 hour biofilm
Source text: The fluorophore ASP^+[4-(4-(diethylamino)styryl)-N-methylpyridinium iodide] was obtained from Sigma Chemical Company (Sigma #D4318) and used as described in Duan et al., Drug Metabolism and Disposition, volume 43, pages 1773-1780, 2015 (herein incorporated by reference) with a slight modification in the ratio of ASP^+ and Trypan blue used.
To verify if OCT-like uptake was responsible for the influx of ASP^+ in Lactobacilli, L. reuteri was pre-treated with D-22, an OCT inhibitor. In brief, Lactobacilli reuteri (obtained from American Type Culture Collection, #23272) were grown overnight at 37° C. in an aerobic environment in flat-bottomed 96-well plates in MRS medium. Following overnight incubation, the medium in each well was carefully removed in order to not overtly disturb the biofilm and a final concentration of 20 μM D-22 dissolved in IMDM or control medium was added. The plate was then incubated for 20 minutes at 37° C. in an aerobic environment. Next, ASP^+ fluorophore dissolved in IMDM was added and the plate was then placed into a BioTek Synergy H1 plate reader at 37° C. and read continuously for a total of 6 hours.
as §3

[3] = tested on: PMAT-like uptake in L. salivarius biofilms; test: IDT307 fluorophore uptake (PMAT-like) in L. salivarius biofilms; type: cell-based, Lactobacillus salivarius; conditions: for attenuation of IDT307 fluorophore uptake: 1 mg/ml, 24 hour biofilm; for uptake of IDT307-associated fluorescence: 100 μM; for inhibition of IDT307 uptake: early and late biofilms
Source text: For measurement of PMAT-like function, the IDT307 fluorophore-based Neurotransmitter Uptake Assay Kit (product #R8173, Molecular Devices, Sunnyvale, CA, USA) was used with modification. As it is intended for studies with mammalian cells, the kit recommends the use of phenol red-free Hank's Balanced Salt Solution (HBSS). Phenol red-free Iscove's Modified Dulbecco's Medium (IMDM; product #21056-023, Life Technologies, Carlsbad, CA, USA) was substituted for HBSS. […] IMDM was selected as it is a nutrient-rich, protein-free medium used in tissue culture that allows for robust growth of a wide variety of bacterial species in the absence of any protein additives common to most microbiology media.
as §1, §2, §3

recombinant PMAT = biological target: T1, recombinant PMAT (Homo sapiens, UniProt Q7RTT9); conditions: 20 μM, HEK293 embryonic kidney cells; cited from earlier work
T1 construct: host or cells: HEK293 embryonic kidney cells (transfected, in the earlier report)
T1 sequence (Q7RTT9 1-530): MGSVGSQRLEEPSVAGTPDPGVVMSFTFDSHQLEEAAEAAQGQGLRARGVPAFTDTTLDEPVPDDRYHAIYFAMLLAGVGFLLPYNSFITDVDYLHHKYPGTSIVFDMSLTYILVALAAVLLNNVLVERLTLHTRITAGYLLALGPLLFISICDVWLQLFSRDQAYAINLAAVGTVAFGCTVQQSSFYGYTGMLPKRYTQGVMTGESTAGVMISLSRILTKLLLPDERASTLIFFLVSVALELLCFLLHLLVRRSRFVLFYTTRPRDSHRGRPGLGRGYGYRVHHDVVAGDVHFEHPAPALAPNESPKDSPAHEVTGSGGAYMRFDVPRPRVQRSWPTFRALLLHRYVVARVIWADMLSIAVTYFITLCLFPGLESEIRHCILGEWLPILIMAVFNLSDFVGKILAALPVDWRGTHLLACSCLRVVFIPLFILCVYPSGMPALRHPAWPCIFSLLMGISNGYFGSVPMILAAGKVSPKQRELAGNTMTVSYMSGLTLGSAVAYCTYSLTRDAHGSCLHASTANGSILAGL

recombinant OCTs = conditions: 20 μM, HEK293 embryonic kidney cells; cited from earlier work
[4] = tested on: PMAT-like uptake in L. reuteri; conditions: 2 mg/ml, 24 hour biofilm
Protocol: as §3

[5] = tested on: microbial communities of mice; test: In vivo administration of fluoxetine, 16S rRNA sequencing of microbial communities; conditions: male mice, oral, daily for 28 days
Protocol: Fluoxetine was administered on a daily basis by the oral route to male mice for 28 days in order to determine if any modulation in microbial communities could be obtained.
To classify the microbial communities, the genomes of isolated bacteria were sequenced and compared. Genomic DNA isolation was obtained using the PowerSoil DNA Isolation Kit (MoBio, Carlsbad, CA) on cecal and fecal samples. Assays were performed in accordance with the manufacturer's protocol with the following modifications: samples were incubated at 70° C. for 10 minutes immediately after addition of the C1 solution and the initial vortex step was extended to 20 minutes to thoroughly homogenize the samples. The purified bacterial genomic DNA extracts were quantified using a Qubit 2.0 Fluorometer (Life Technologies, Carlsbad, CA), and stored at −20° C. in 10 mM Tris buffer. For Illumina sequencing, bacterial genomic DNA was amplified using the Earth Microbiome Project barcoded primer set, adapted for the Illumina HiSeq2000 and MiSeq by adding nine extra bases in the adapter region of the forward amplification primer that support paired-end sequencing. The V4 region of the 16S rRNA gene (Illumina, 515F-806R) was amplified with region-specific primers that included the Illumina flowcell adapter sequences. The reverse amplification primer also contained a twelve base barcode sequence that supported pooling of up to 2,167 different samples in each lane. Each 25 μl PCR reaction contained 12 µl of MoBio PCR Water (Certified DNA-Free), 10 μl of 5 Prime HotMasterMix (1×), 1 μl of Forward Primer ([…], […]), 1 μl Golay Barcode Tagged Reverse Primer (5 μM concentration, […]), and […]. The conditions for PCR were as follows: 94° C. for 3 minutes to denature the DNA, with 35 cycles at 94° C. for 45 s, 50° C. for 60 s, and 72° C. for 90 s; with a final extension of 10 min at 72° C. to ensure complete amplification. The PCR amplicons were quantified using PicoGreen (Invitrogen) and a plate reader. Once quantified, different volumes of each of the products were pooled into a single tube so that each amplicon was represented equally. This pool was then cleaned up using UltraClean® PCR Clean-Up Kit (MoBIO), and quantified using the Qubit (Invitrogen). After quantification, the molarity of the pool was determined and diluted down to 2 nM, denatured, and then diluted to a final concentration of […] with a 10% PhiX spike for sequencing on the Illumina MiSeq.
In total, 60 fecal samples, representing 20 samples for each time point (day 0, 15, and 28) with 10 samples for the control and treatment groups, respectively, were used for 16S rRNA gene amplicon sequencing using Illumina MiSeq with 151 bp paired-end sequencing technology. 16S rRNA gene PCR and library preparation and sequencing were completed at the Environmental Sample Preparation and Sequencing Facility at Argonne National Laboratory. Sequence analysis was performed using mothur version 1.39.3 following the mothur MiSeq SOP available at the mothur website. Briefly, contigs were joined with “make.contigs”, reads longer than 250 bp, harboring any ambiguous bases or with more than 8 consecutive homopolymers were excluded using “screen.seqs”. Reads were aligned to the SILVA NR128 reference database. Chimeric sequences were removed with “chimera.uchime” and the remaining reads were clustered into operational taxonomic units (OTUs) using a 97% similarity threshold and taxonomy was assigned to OTUs using the SILVA NR 128 reference database. […] For determination of differences between groups on community level, analysis of molecular variance (AMOVA) and analysis of similarity (ANOSIM) implemented in mothur were used. Heatmaps were generated with JColorGrid. For better taxonomic classification, the OTUs were searched against the 16S rRNA gene sequences of the Mouse Intestinal Bacterial Collection isolates (miBC) using BlastN.

[6] = biofilms established over 24 hours
[7] = concentrations higher than 0.625 mM

CCN(CC)c1ccc(C=Cc2cc[n+](C)cc2)cc1.[I-] [ASP^+, 4-(4-(diethylamino)styryl)-N-methylpyridinium iodide]
time of intracellular fluorescence decay after maximum ([1]; 6 hour biofilms, 37° C.): 2 to 3 h
time to maximum fluorescence intensity ([1]; 6 hour biofilms, 37° C.): < 60 min
residence time of probe in biofilm [1, 6]: > 6 h

CN(C)CCC=C1c2ccccc2CCc2ccccc21 [Amitriptyline, amitriptyline]
attenuation of ASP+ fluorophore uptake [2]: much stronger inhibitory effect
attenuation of IDT307 fluorophore uptake [3]: much stronger inhibitory effect

CN(C)c1ccc(-c2cc[n+](C)cc2)cc1.[I-] [IDT307, 4-[p-(Dimethylamino)phenyl]-1-methylpyridinium iodide]
time of intracellular fluorescence decay after maximum ([3]; 6 hour biofilms, 37° C.): 2 to 3 h
time to maximum fluorescence intensity ([3]; 6 hour biofilms, 37° C.): < 60 min
residence time of probe in biofilm [3, 6]: > 6 h

NC[C@H](O)c1ccc(O)c(O)c1 [NE, norepinephrine]
uptake of IDT307-associated fluorescence ([3]; 6 hour biofilms): markedly inhibited

CCN1/C(=C/c2ccc3ccccc3[n+]2CC)C=Cc2ccccc21.[I-] [decynium-22]
peak increase in ASP+ uptake ([1]; 20 μM, early (6 hour) biofilms): blunted
serotonin uptake through recombinant PMAT (recombinant PMAT): block serotonin uptake
ability of the ASP+ fluorophore to enter into the cells (fluorescence) ([2]; 20 μM, 20 min pre-incubation, overnight biofilm, read 6 hours, all time points): reduced the ability of the ASP^+ fluorophore to enter into the cells
serotonin uptake through recombinant OCTs (recombinant OCTs): block serotonin uptake
peak increase in IDT307 uptake ([3]; 20 μM, early (6 hour) biofilms): blunted

CNCC[C@H](Oc1cccc2ccccc12)c1cccs1 [duloxetine]
attenuation of ASP+ fluorophore uptake ([1]; 1 mg/ml, 24 hour biofilm): some attenuation
attenuation of IDT307 fluorophore uptake [4]: larger attenuation of fluorophore uptake
attenuation of ASP+ fluorophore uptake [2]: larger attenuation of fluorophore uptake
attenuation of IDT307 fluorophore uptake [3]: some attenuation

CNCCC(Oc1ccc(C(F)(F)F)cc1)c1ccccc1 (stereo not drawn) [fluoxetine]
inhibition of ASP+ uptake ([1]; concentrations below 0.625 mM): concentration-dependent inhibition
inhibition of ASP+ uptake [1, 7]: total inhibition
overall effect on microbial communities [5]: shift of microbial communities towards dysbiosis
decrease of Lactobacillus OTU17 abundance under treatment ([5]; fecal samples): 7.4 fold
number of OTUs different between control and fluoxetine group ([5]; fecal samples): 121 OTUs
species richness and diversity estimators vs control group ([5]; fecal samples): No statistical significant differences
abundance of Firmicutes relative to Bacteroidetes ([5]; phylum level): trended (p=0.08) to be more abundant than Bacteroidetes
whole community level comparison with control (AMOVA and ANOSIM) ([5]; p=0.02 and p=0.05): statistically significant differences
inhibition of IDT307 uptake ([3]; concentrations below 0.625 mM): concentration-dependent inhibition
inhibition of IDT307 uptake [3, 7]: total inhibition

NCCc1c[nH]c2ccc(O)cc12 [serotonin]
uptake of IDT307-associated fluorescence ([3]; 6 hour biofilms): markedly inhibited

O=NO [sodium nitrite]
uptake of IDT307-associated fluorescence ([3]; 6 hour biofilms): inhibited the rapid rise in IDT307-associated fluorescence
